ChEMBL document CHEMBL2176989, “Design, synthesis, and pharmacological evaluation of piperidin-4-yl amino aryl sulfonamides: novel, potent, selective, orally active, and brain penetrant 5-HT₆ receptor antagonists” (J Med Chem, 2012)
pEC50, pIC50, pKi: −log10 of the molar value. The source made the active and inactive calls. No cut-off for these calls is given here.

What was measured:
D(2) dopamine receptor = D(2) dopamine receptor (Homo sapiens, UniProt P14416); test: Binding affinity to dopamine D2 receptor
Rattus norvegicus [1] = test: Procognitive activity in Wistar rat assessed as increase in acetylcholine level in medial prefrontal cortex at 10 mg/kg, sc administered as an acute dose measured up to 4 hrs by brain microdialysis method; format: functional, organism-based; parameters: dose 10 mg/kg
Rattus norvegicus [2] = test: Procognitive activity in Wistar rat assessed as reversal of time delay-induced memory deficit at 1 to 10 mg/kg, po by object recognition test; format: functional, organism-based
[3] = Tmax in fasted beagle dog at 3 mg/kg, po; format: ADME, organism-based, Canis lupus familiaris; parameters: dose 3 mg/kg, route oral; conditions: in vivo
[4] = molecular target: 5-hydroxytryptamine receptor 2A (Homo sapiens, UniProt P28223); test: Binding affinity to 5HT2A receptor
[5] = molecular target: 5-hydroxytryptamine receptor 4 (Homo sapiens, UniProt Q13639); test: Binding affinity to 5HT4 receptor
Histamine H1 receptor = Histamine H1 receptor (Homo sapiens, UniProt P35367); test: Binding affinity to histamine H1 receptor
[6] = AUC (0 to 24 hrs) in fasted Wistar rat at 5 mg/kg, po; format: ADME, organism-based; parameters: time < 24 hr, dose 5 mg/kg, route oral; conditions: plasma
[7] = Clearance in Wistar rat at 5 mg/kg, iv; format: ADME, organism-based; parameters: dose 5 mg/kg, route intravenous; conditions: in vivo
[8] = AUC (0 to 24 hrs) in beagle dog at 1 mg/kg, iv; format: ADME, organism-based, Canis lupus familiaris; parameters: time < 24 hr, dose 1 mg/kg, route intravenous; conditions: plasma
[9] = Drug metabolism in human liver microsomes at 2.5 uM at 30 mins by LC-MS/MS analysis; format: ADME, Microsome; conditions: read-out: Drug metabolism
[10] = AUC (0 to 24 hrs) in Wistar rat at 5 mg/kg, iv; format: ADME, organism-based; parameters: time < 24 hr, dose 5 mg/kg, route intravenous; conditions: plasma
[11] = molecular target: 5-hydroxytryptamine receptor 6 (Homo sapiens) (UniProt P50406); test: Antagonist activity at human recombinant 5HT6 receptor expressed in CHO cells assessed as inhibition of 5HT-induced luciferase activity after 4 hrs by reporter gene assay relative to control; format: functional, cell-based
[12] = AUC (0 to 24 hrs) in fasted beagle dog at 3 mg/kg, po; format: ADME, organism-based, Canis lupus familiaris; parameters: time < 24 hr, dose 3 mg/kg, route oral; conditions: plasma
[13] = Clearance in beagle dog at 1 mg/kg, iv; format: ADME, organism-based, Canis lupus familiaris; parameters: dose 1 mg/kg, route intravenous; conditions: in vivo
[14] = molecular target: 5-hydroxytryptamine receptor 7 (Homo sapiens, UniProt P34969); test: Binding affinity to 5HT7 receptor
Cytochrome P450 2D6 = Cytochrome P450 2D6 (Homo sapiens, UniProt P10635); test: Inhibition of CYP2D6 in human liver microsomes using dextromethorphan as substrate after 10 mins by LC-MS/MS analysis in presence of NADPH
[15] = Oral bioavailability in fasted beagle dog at 3 mg/kg; format: ADME, organism-based, Canis lupus familiaris; conditions: in vivo
[16] = Drug metabolism in Wistar rat liver microsomes at 2.5 uM at 30 mins by LC-MS/MS analysis; format: ADME, Microsome; conditions: read-out: Drug metabolism
[17] = Tmax in fasted Wistar rat at 5 mg/kg, po; format: ADME, organism-based; parameters: dose 5 mg/kg, route oral; conditions: in vivo
[18] = molecular target: T1, 5-hydroxytryptamine receptor 2C (Homo sapiens, UniProt P28335); test: Binding affinity to 5HT2C receptor
T1 sequence (P28335 whole entry): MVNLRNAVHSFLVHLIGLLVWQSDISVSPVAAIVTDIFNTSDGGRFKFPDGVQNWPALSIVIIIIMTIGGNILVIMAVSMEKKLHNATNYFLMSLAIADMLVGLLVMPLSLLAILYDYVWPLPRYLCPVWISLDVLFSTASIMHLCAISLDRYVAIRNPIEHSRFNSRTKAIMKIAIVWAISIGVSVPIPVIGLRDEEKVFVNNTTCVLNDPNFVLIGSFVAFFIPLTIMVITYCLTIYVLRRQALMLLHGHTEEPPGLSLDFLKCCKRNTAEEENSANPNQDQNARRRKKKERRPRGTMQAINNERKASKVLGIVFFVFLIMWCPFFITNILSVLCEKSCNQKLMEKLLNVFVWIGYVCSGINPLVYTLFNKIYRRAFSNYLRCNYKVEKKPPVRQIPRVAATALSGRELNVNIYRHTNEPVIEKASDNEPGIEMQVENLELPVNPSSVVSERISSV

[19] = molecular target: T2, Alpha-1B adrenergic receptor (Homo sapiens, UniProt P35368); test: Binding affinity to adrenergic alpha1B receptor
T2 sequence (P35368 whole entry): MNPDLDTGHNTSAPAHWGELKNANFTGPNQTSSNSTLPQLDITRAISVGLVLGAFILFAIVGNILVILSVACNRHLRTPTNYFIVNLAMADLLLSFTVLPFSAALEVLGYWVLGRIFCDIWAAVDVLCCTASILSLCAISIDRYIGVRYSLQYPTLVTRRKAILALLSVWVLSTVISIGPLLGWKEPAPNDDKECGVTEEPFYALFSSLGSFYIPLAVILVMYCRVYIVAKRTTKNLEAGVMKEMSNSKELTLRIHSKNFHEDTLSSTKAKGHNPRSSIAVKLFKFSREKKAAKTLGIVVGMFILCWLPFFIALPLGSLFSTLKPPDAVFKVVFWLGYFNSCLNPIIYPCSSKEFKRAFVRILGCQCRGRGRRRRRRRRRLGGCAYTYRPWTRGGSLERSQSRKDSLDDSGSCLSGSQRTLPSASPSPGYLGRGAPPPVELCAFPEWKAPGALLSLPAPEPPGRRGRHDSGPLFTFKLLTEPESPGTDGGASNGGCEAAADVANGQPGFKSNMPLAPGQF

[20] = molecular target: 5-hydroxytryptamine receptor 6 (Homo sapiens) (UniProt P50406); test: Antagonist activity at human recombinant 5HT6 receptor expressed in CHO cells assessed as inhibition of 5HT-induced luciferase activity after 4 hrs by reporter gene assay; format: functional, cell-based
[21] = Apparent volume of distribution in beagle dog at 1 mg/kg, iv; format: ADME, organism-based, Canis lupus familiaris; parameters: dose 1 mg/kg, route intravenous; conditions: in vivo, read-out: Vz
[22] = Cmax in fasted beagle dog at 3 mg/kg, po; format: ADME, organism-based, Canis lupus familiaris; parameters: dose 3 mg/kg, route oral; conditions: in vivo
[23] = molecular target: Sodium-dependent dopamine transporter (Homo sapiens, UniProt Q01959); test: Binding affinity to dopamine transporter
[24] = molecular target: T3, 5-hydroxytryptamine receptor 3A (Homo sapiens, UniProt P46098); test: Binding affinity to 5HT3 receptor
T3 sequence (P46098 whole entry): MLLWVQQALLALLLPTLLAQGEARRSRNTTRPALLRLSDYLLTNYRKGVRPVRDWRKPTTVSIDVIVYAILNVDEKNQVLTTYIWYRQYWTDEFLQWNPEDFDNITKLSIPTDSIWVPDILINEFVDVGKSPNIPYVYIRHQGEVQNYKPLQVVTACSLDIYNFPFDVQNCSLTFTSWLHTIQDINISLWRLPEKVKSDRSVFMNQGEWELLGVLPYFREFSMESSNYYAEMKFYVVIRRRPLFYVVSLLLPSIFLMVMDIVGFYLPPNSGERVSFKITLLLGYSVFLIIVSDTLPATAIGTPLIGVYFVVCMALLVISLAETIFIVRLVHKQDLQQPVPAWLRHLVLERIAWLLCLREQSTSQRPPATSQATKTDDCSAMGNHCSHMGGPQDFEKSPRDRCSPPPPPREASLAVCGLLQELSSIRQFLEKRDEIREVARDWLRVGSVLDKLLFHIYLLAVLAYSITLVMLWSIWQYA

[25] = Half life in Wistar rat at 5 mg/kg, iv; format: ADME, organism-based; parameters: dose 5 mg/kg, route intravenous; conditions: in vivo
[26] = Half life in beagle dog at 1 mg/kg, iv; format: ADME, organism-based, Canis lupus familiaris; parameters: dose 1 mg/kg, route intravenous; conditions: in vivo
Cytochrome P450 3A4 = Cytochrome P450 3A4 (Homo sapiens, UniProt P08684); test: Inhibition of CYP3A4 in human liver microsomes using midazolam as substrate after 5 mins by LC-MS/MS analysis in presence of NADPH
Chain of Cytochrome P450 3A4 (P08684 whole entry): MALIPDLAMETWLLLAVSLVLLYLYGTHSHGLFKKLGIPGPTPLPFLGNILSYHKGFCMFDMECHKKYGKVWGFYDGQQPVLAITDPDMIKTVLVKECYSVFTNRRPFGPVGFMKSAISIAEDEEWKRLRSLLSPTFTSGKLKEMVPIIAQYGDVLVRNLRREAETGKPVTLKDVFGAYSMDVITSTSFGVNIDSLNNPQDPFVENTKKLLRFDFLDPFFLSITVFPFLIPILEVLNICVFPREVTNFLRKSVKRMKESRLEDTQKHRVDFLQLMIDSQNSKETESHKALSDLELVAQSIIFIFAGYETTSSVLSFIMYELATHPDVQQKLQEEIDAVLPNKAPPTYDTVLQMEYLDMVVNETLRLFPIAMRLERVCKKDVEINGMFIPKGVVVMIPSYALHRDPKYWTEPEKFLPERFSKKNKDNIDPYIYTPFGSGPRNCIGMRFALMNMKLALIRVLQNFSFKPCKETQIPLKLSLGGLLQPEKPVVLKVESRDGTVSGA

Chain of 5-hydroxytryptamine receptor 6 (Homo sapiens) (P50406 whole entry): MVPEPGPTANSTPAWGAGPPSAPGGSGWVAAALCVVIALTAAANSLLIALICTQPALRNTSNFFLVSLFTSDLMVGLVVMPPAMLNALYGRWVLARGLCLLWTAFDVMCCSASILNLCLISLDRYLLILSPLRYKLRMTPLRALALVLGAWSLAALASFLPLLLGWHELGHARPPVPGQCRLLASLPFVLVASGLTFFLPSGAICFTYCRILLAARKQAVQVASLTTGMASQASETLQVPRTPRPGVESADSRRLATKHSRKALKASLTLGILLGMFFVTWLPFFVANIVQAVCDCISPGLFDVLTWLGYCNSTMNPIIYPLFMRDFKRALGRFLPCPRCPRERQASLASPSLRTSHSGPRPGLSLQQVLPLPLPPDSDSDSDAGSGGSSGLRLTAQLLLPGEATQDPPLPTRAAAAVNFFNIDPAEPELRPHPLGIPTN
Chain of D(2) dopamine receptor (P14416 whole entry): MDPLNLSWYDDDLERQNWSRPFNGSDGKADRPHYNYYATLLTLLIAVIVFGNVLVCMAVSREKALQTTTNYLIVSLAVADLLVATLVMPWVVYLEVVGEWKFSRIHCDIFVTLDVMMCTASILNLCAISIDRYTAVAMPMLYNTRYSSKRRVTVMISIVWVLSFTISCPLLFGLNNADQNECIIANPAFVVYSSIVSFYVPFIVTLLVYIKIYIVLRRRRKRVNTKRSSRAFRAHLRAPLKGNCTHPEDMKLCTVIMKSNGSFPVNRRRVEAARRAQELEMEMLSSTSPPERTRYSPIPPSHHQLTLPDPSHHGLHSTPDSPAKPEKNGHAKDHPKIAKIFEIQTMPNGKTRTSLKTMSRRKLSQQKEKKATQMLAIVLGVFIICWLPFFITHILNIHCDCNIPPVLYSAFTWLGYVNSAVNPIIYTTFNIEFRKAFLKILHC
Chain of 5-hydroxytryptamine receptor 4 (Q13639 whole entry): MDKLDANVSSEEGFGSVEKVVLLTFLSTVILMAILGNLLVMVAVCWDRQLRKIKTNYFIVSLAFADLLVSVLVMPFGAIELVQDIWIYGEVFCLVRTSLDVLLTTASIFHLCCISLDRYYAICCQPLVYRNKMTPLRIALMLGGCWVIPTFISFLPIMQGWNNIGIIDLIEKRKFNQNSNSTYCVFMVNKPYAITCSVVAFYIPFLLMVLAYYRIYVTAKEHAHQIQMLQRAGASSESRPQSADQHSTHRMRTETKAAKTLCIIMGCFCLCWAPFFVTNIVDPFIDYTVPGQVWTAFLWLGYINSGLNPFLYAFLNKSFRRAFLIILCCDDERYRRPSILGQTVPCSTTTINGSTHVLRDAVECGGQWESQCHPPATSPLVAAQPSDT
Chain of 5-hydroxytryptamine receptor 2A (P28223 whole entry): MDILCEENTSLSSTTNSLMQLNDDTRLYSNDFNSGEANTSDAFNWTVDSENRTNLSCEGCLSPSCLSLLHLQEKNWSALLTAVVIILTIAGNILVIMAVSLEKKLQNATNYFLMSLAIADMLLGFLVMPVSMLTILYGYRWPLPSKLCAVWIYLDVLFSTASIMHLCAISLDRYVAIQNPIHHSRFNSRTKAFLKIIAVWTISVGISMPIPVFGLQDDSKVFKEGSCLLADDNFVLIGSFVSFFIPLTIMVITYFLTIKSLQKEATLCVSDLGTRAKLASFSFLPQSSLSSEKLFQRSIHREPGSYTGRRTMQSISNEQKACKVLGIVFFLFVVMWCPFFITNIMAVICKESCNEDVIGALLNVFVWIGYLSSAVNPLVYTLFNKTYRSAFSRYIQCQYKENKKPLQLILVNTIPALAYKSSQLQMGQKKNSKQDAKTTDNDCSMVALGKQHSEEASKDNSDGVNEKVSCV
Chain of 5-hydroxytryptamine receptor 7 (P34969 whole entry): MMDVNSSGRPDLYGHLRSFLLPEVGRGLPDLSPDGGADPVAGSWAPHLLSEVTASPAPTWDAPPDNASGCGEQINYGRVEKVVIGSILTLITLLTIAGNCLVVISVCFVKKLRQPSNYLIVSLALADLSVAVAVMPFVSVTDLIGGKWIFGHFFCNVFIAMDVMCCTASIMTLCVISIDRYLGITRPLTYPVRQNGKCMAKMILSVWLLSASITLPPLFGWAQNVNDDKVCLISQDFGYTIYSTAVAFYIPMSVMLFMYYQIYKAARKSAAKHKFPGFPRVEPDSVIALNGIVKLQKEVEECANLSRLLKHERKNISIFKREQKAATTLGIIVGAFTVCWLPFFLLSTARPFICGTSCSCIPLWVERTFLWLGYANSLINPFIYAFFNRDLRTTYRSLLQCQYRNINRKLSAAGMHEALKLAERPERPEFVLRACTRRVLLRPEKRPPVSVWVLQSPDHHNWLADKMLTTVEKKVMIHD
Chain of Histamine H1 receptor (P35367 whole entry): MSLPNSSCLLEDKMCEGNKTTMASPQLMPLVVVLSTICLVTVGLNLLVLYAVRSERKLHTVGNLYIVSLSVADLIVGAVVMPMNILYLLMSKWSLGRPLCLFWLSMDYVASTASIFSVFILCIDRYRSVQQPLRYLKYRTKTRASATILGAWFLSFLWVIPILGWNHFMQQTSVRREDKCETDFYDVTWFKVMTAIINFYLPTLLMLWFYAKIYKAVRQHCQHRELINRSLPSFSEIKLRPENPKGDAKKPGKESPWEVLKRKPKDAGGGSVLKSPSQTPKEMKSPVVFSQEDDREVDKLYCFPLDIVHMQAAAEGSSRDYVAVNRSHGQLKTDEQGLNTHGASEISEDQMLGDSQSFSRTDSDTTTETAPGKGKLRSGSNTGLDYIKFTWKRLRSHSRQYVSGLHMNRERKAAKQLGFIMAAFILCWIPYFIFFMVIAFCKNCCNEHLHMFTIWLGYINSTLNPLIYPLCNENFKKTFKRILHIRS
Chain of Sodium-dependent dopamine transporter (Q01959 whole entry): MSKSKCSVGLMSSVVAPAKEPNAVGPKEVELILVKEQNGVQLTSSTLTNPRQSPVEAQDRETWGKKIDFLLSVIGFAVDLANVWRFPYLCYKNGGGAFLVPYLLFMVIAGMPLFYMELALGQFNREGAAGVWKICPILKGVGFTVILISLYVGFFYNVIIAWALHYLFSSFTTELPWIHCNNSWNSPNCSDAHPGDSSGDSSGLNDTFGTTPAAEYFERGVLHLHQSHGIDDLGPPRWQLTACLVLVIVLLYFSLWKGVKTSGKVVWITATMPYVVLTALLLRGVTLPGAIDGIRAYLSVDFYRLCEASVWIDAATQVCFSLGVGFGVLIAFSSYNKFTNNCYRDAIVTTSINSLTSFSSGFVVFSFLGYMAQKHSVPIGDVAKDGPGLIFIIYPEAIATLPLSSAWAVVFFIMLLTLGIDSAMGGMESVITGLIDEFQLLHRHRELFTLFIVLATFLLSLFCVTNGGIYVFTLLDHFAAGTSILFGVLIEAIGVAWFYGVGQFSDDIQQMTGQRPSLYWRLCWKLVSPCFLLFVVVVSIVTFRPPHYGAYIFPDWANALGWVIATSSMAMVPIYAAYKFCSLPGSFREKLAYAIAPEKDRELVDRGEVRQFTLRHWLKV
Chain of Cytochrome P450 2D6 (P10635 whole entry): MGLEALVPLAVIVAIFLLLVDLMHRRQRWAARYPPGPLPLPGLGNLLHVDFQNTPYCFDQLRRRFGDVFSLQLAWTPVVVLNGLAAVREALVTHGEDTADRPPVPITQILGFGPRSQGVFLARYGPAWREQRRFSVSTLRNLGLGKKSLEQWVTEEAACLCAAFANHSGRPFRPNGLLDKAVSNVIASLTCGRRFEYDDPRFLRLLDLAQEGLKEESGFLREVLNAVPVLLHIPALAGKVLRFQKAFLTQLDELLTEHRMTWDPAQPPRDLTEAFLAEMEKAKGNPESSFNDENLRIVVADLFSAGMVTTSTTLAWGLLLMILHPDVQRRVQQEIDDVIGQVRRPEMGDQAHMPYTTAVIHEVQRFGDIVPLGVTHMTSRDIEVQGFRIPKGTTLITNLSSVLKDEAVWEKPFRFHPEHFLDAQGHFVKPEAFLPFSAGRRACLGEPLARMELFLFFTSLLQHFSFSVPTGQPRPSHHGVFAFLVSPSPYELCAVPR

Q: With `COc1ccc(S(=O)(=O)n2cc(C)c3cc(Cl)cnc32)cc1NC1CCN(C)CC1` as the molecule, how does the pKi (D(2) dopamine receptor) read?
A: 5.74

Q: And the Activity (Rattus norvegicus [1])?
A: Active

Q: What about the Activity (Rattus norvegicus [2]) of the same molecule?
A: Active

Q: And the Tmax [3]?
A: 1.7 h

Q: And the pKi [4]?
A: 5.62

Q: What about the pEC50 [5] of the same molecule?
A: < 5.00

Q: And the pKi (Histamine H1 receptor)?
A: 6.23

Q: What about the AUC(0-t) at 24 h [6] of the same molecule?
A: 389 ng·h/mL

Q: What about the clearance [7] of the same molecule?
A: 64 mL/min/kg

Q: What about the AUC(0-t) at 24 h [8] of the same molecule?
A: 1400 ng·h/mL

Q: And the metabolised at 0.5 h, 2.5 µM [9]?
A: 72%

Q: And the AUC(0-t) at 24 h [10]?
A: 1310 ng·h/mL

Q: What about the Imax [11] of the same molecule?
A: 100%

Q: What about the AUC(0-t) at 24 h [12] of the same molecule?
A: 3630 ng·h/mL

Q: And the clearance [13]?
A: 12 mL/min/kg

Q: What about the pKi [14] of the same molecule?
A: 5.71

Q: And the pIC50 (Cytochrome P450 2D6)?
A: < 4.35

Q: And the bioavailability [15]?
A: 92%

Q: And the metabolised at 0.5 h, 2.5 µM [16]?
A: 76%

Q: What about the Tmax [17] of the same molecule?
A: 1 h

Q: What about the pKi [18] of the same molecule?
A: 5.65

Q: And the pKi [19]?
A: 5.42

Q: What about the Kb [20] of the same molecule?
A: 0.04 nM

Q: And the Vd [21]?
A: 2.1 L/kg

Q: And the Cmax [22]?
A: 549 ng/mL

Q: What about the pKi [23] of the same molecule?
A: 5.49

Q: And the pIC50 [24]?
A: < 5.00

Q: And the half-life [25]?
A: 1.7 h

Q: What about the half-life [26] of the same molecule?
A: 2.3 h

Q: What about the pIC50 (Cytochrome P450 3A4) of the same molecule?
A: 5.00
